According to US11390597B2, “Salt and solid state forms of escitalopram” (priority 2017, dated 2022):

What was measured:
[1] = Comparative pharmacokinetics of escitalopram salts, IV and SC administration in rats; format: in vivo; conditions: Sprague dawley rats, single IV dose 1 mg/kg or SC dose 5 mg/kg, blood analyzed for escitalopram
Procedure: Escitalopram salt solutions are prepared for intravenous (IV) and/or subcutaneous (SC) administration as follows: A 1 mg/kg solution of escitalopram oxalate (Ox-Esc) is prepared for IV administration at 1 mL/kg in 10% DMSO, 30% Solutol® (polyoxyethylated 12-hydroxystearic acid), 60% PBS.
A 1 mg/kg solution of escitalopram pamoate (P-Esc) is prepared for IV administration 1 mL/kg in 10% DMSO, 30% Solutol®, 60% PBS, and for SC administration 200 uL of 5 mg/kg in DMSO.
(§1) The pharmacokinetics of IV administered escitalopram oxalate are determined as follows. […] Blood is collected from rats post dose in EDTA K2 tubes in a staggered design (cohort 1: 0 min, 30 min, 4 hr, 24 hr; cohort 2: 5 min, 1 hr, 8 hr, 36 hr; cohort 3: 15 min, 2 hr, 12 hr, 48 hr) and analyzed for escitalopram.
as §1, with “pamoate” for “oxalate”
The pharmacokinetics of SC administered escitalopram pamoate are determined as follows. […] Blood is collected from rats post dose in EDTA K2 tubes in a staggered design (cohort 1: 0 min, 1 hr, 8 hr, 48 hr; cohort 2: 5 min, 2 hr, 24 hr, 72 hr; cohort 3: 30 min, 4 hr, 36 hr, 96 hr) and analyzed for escitalopram. […]

[2] = Treatment of human subjects with escitalopram gentisate composition; format: in vivo; conditions: human subject afflicted with a neuropsychiatric disorder, periodic administration (IV, oral, subcutaneous)
Source text: Periodic administration is meant to include inter alia IV, oral and subcutaneous administration.

CN(C)CCCC1(c2ccc(F)cc2)OCc2cc(C#N)ccc21.O=C(O)c1cc(O)ccc1O (centres unmarked) [escitalopram gentisate]
pharmacokinetic profile compared with pamoate and oxalate salts [1]: distinct from those of the pamoate and oxalate salts | reducing or eliminating the symptoms of the neuropsychiatric disorder [2]: clinically meaningful advantage in reducing or eliminating the symptoms
